Measured values as given in PubChem BioAssay (NCI).
Values joined by “and” are separate entries in the source; they are usually repeats but may differ in a detail not shown here. Identical values can stand only once.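 Cultured in 96-well plates, cells were exposed to test compound for 48 hours across five concentrations. GI50 marks 50% less growth. TGI denotes the concentration required for complete inhibition of growth.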

What was measured:
Assay in all cases: NCI anticancer screen, dose series, 48 h
TK-10 renal = test system: TK-10 renal
A498 renal = test system: A498 renal
CCRF-CEM leukemia = test system: CCRF-CEM leukemia
U251 CNS = test system: U251 CNS
OVCAR-8 ovarian = test system: OVCAR-8 ovarian
NCI-H226 lung = test system: NCI-H226 lung
SK-MEL-5 melanoma = test system: SK-MEL-5 melanoma
MALME-3M melanoma = test system: MALME-3M melanoma
A549 NSCLC = test system: A549 NSCLC
NCI-H460 lung = test system: NCI-H460 lung

Structure (SMILES) | TGI (TK-10 renal) | TGI (A498 renal) | TGI (CCRF-CEM leukemia) | TGI (U251 CNS) | TGI (OVCAR-8 ovarian) | TGI (NCI-H226 lung) | TGI (SK-MEL-5 melanoma) | TGI (MALME-3M melanoma) | TGI (A549 NSCLC) | TGI (NCI-H460 lung) | GI50 (TK-10 renal) | GI50 (A498 renal) | GI50 (CCRF-CEM leukemia) | GI50 (U251 CNS) | GI50 (OVCAR-8 ovarian) | GI50 (NCI-H226 lung) | GI50 (SK-MEL-5 melanoma) | GI50 (MALME-3M melanoma) | GI50 (A549 NSCLC) | GI50 (NCI-H460 lung)
CC1(C)CC2C(=O)c3ccccc3NC2c2ccccc21 (configuration not stated) | > 100 µM | > 100 µM | > 100 µM | > 100 µM | > 100 µM | > 100 µM | 26.7 µM | > 100 µM | > 100 µM | > 100 µM | – | – | – | – | – | – | – | – | – | –
C=C1C(=O)O[C@H]2[C@H]1CC/C(COC(=O)NCC(C)c1ccc(CC(C)C)cc1)=C\CC[C@@]1(C)O[C@@H]21 (some centres not stated) | 7.23 µM | 8.68 µM | 3.61 µM | 8.7 µM | 6.87 µM | 4.59 µM | 8.07 µM | 2.89 µM | 11.8 µM | 10 µM | 3.34 µM | 4.36 µM | 0.644 µM | 4.32 µM | 1.94 µM | 1.05 µM | 3.97 µM | 0.926 µM | 6.46 µM | 4.69 µM
CSC(=S)N/N=C/c1nccc2ccccc12 | 62.9 µM | 13.6 µM | 8.8 µM | 6.99 µM | 4.96 µM | 12 µM | 2.66 µM | 32.7 µM | 9.87 µM | 6.12 µM | – | – | – | – | – | – | – | – | – | –
COc1cc2c(cc1OC)C(C(=O)c1cccc(OC)c1OC)C(=O)N(C)CC2 (configuration not stated) | > 100 µM | > 100 µM | > 100 µM | > 100 µM | > 100 µM | > 100 µM | > 100 µM | > 100 µM | > 100 µM | > 100 µM | – | – | – | – | – | – | – | – | – | –
O=C(O)c1ccc(C2C(=O)N[C@@H]3CCC[C@H]23)cc1 (some centres not stated) | > 100 µM | > 100 µM | > 100 µM | > 100 µM | > 100 µM | > 100 µM | > 100 µM | > 100 µM | > 100 µM | > 100 µM | – | – | – | – | – | – | – | – | – | –
CN(C)CCNC(=O)Cn1ccc(=O)c2c([N+](=O)[O-])cccc21 | > 100 µM | > 100 µM | > 100 µM | > 100 µM | > 100 µM | > 100 µM | > 100 µM | > 100 µM | > 100 µM | > 100 µM | – | – | – | – | – | – | – | – | – | –
O=C(O)c1ccccc1/C=N/N=C1c2ccccc2-c2ccccc21 | > 100 µM | > 100 µM | 78.7 µM | 55.6 µM | > 100 µM | 41.6 µM | > 100 µM | > 100 µM | > 100 µM | 70.2 µM | – | – | – | – | – | – | – | – | – | –
O=C1CCCCN1CCCCC#Cc1cccc(C#Cc2cccnc2)c1 | > 100 µM | > 100 µM | > 100 µM | 22 µM | 67.9 µM | 34 µM | 36.3 µM | 79.1 µM | 60.6 µM | > 100 µM | 49.8 µM | 42.8 µM | 30.9 µM | 7.05 µM | 21.6 µM | 12.9 µM | 14.3 µM | 21.7 µM | 18.4 µM | 19.6 µM
CC(C)(C)c1cc(C=C(C#N)C#N)cc(C(C)(C)C)c1O | – | 3.83 µM and 1.76 µM | – | 23.1 µM and 11.5 µM | 23.6 µM and 48.1 µM | 1.51 µM and 14.8 µM | 3.07 µM | 15.4 µM and 8.08 µM | 24.3 µM and 71.4 µM | 21.9 µM | 0.336 µM | 0.158 µM | 0.609 µM | 0.359 µM | 0.355 µM | 0.371 µM | 0.298 µM | 0.507 µM | – | 0.305 µM
Cc1nc(C(N)=S)sc1C(=O)/C=C/c1c(O)ccc2ccccc12 | > 100 µM | > 100 µM | 54.5 µM | > 100 µM | > 100 µM | > 100 µM | > 100 µM | > 100 µM | > 100 µM | > 100 µM | – | – | – | – | – | – | – | – | – | –
O=[N+]([O-])c1ccc(-c2ccc(-c3csc(Nc4ccccc4)n3)o2)cc1 | 33.3 µM | 34.5 µM | 16.9 µM | 41.5 µM | 40.7 µM | > 84.1 µM | 40.1 µM | 32.1 µM | > 100 µM | > 67 µM | – | – | – | – | – | – | – | – | – | –
COC(=O)C1(C)Cc2cc(OC(C)=O)c(OC(C)=O)cc2N1 (configuration not stated) | 44.1 µM | > 90.7 µM | > 46 µM | 21.9 µM | 70.2 µM | 60 µM | 27.8 µM | 15.4 µM | 29.4 µM | > 100 µM | 11.1 µM | 37.8 µM | 3.42 µM | 8.09 µM | 14.4 µM | 14.8 µM | 13.9 µM | 3.18 µM | 11.6 µM | 32.8 µM
COc1ccc(C(=O)c2ccc([As]=O)cc2)cc1 (configuration not stated) | 0.18 µM | 0.305 µM | 0.171 µM | 0.0615 µM | 0.203 µM | 0.459 µM | 0.288 µM | 0.0861 µM | 0.348 µM | 0.416 µM | 0.057 µM | 0.164 µM | 0.0296 µM | 0.0218 µM | 0.0617 µM | 0.169 µM | 0.14 µM | 0.0281 µM | 0.158 µM | 0.172 µM
C=C1C(=O)O[C@H]2[C@H]1CC/C(C=Nc1c(N)cc(C(F)(F)F)cc1Br)=C\CC[C@@]1(C)O[C@@H]21 | 3.49 µM | 4.8 µM | 11.2 µM | 3.17 µM | 9.03 µM | 5.29 µM | 2.64 µM | 3.34 µM | 5.11 µM | 3.81 µM | 1.98 µM | 2.03 µM | 0.33 µM | 1.69 µM | 2.34 µM | 2.09 µM | 1.35 µM | 1.71 µM | 2.03 µM | 1.78 µM
CCCCN(CC)CC(C(C)=O)c1c(O)c2ccccc2oc1=O (configuration not stated) | > 100 µM | > 100 µM | > 100 µM | > 100 µM | > 100 µM | > 100 µM | > 100 µM | > 100 µM | > 100 µM | > 100 µM | – | – | – | – | – | – | – | – | – | –
CCNC(=O)c1noc(-c2cc(C(C)C)c(O)cc2O)c1-c1ccc(CN2CCOCC2)cc1 | 14.8 µM | 17.5 µM | > 75.4 µM | 15.5 µM | 28.9 µM | 26.6 µM | 14.2 µM | 12.1 µM | 22.7 µM | 14.6 µM | 0.0233 µM | 0.0418 µM | 0.0321 µM | < 0.0131 µM | 0.0423 µM | 0.0409 µM | 0.047 µM | 0.025 µM | 0.0221 µM | < 0.0152 µM
COC(=O)C1(O)CC(=O)CCC1c1ccc(OC)cc1 (configuration not stated) | > 100 µM | > 100 µM | > 100 µM | > 100 µM | > 100 µM | > 100 µM | > 100 µM | > 100 µM | > 100 µM | > 100 µM | – | – | – | – | – | – | – | – | – | –
